Source: US20140080128A1, “METHOD FOR DETERMINING WHETHER A SUBJECT IS AT RISK OF HAVING OR DEVELOPING A CHRONIC KIDNEY DISEASE” (Institut National de Ia Sante et de la Recherche Medicale …, priority 2011, published 2014)

Assays:
Assay type in all cases: in vivo, Sprague-Dawley rats
[1] = system: Hypertension-Induced Renal Disease Rat Model (L-NAME); assay: Renal hemodynamics (arterial pressure, renal blood flow) in L-NAME hypertension-induced renal disease rat model; details: for MAP (mean arterial pressure): L-NAME orally 15 mg/kg/day
Procedure: (§1) Male Sprague-Dawley rats, weighing 250 g, were maintained on a normal-salt diet and had free access to chow and tap water. NO synthesis was inhibited by L-NAME (orally, 15 mg·kg-1·day-1). […] When proteinuria exceeded 1 g/mmol creatinine (after 5 or 6 weeks), a group of animals was killed to allow estimations of renal hemodynamics and morphological parameters just before the beginning of therapy (LN 6w group, n=10). The remaining animals were divided into two subgroups for an additional experimental period of 4 weeks: in the first subgroup, L-NAME was given alone (LN 10w group, n=12); in the second subgroup treatment was accompanied by the administration of an AT1 receptor antagonist (Losartan, orally 30 mg·kg-1·day-1, Merck Sharp and Dohme-Chibret). At the end of Losartan treatment, we separated the animals of the second group in two subgroups: animals with normal creatininemia below 50 μmol/l (LN reg n=14) and animals with a creatininemia above 70 μmol/l (LN no reg n=15). The doses of the drugs were based on pilot experiments and previously published studies. Control animals were sacrificed at 6 and 10 week. Since control animals gave similar results for all measured parameters, pooled data are presented (C group, n=8). Others animals received Losartan during 4 weeks as additional control group (LOS group, n=3). All protocols and treatments were performed with the approval of the French government ethics committee.
After anesthesia by pentobarbital sodium (50-60 mg/kg body wt ip, Nembutal, Abbott, Chicago, Ill.), animals were placed on a servo-controlled table kept at 37° C. and the trachea was cannulated to facilitate respiration. The left femoral artery was catheterized for measurement of arterial pressure, and a femoral venous catheter was used for infusion of volume replacement. An ultrasound transit-time flow probe (1RB, Transonic, Ithaca, N.Y.) was placed around the left renal artery. Bovine serum albumin (4.7 g/dl of saline solution) was infused initially at 50 μl/min to replace surgical losses, and then at 10 μl/min for maintenance. Arterial pressure was measured via a pressure transducer (Statham P23 DB); RBF was measured by a flowmeter (T 420, low-pass filter, 40 Hz, Transonic). RBF values were controlled for zero offset determined at the end of an experiment after cardiac arrest. Data were recorded, stored, and analyzed using a DataTranslation analog-to-digital converter and the IOX software (EMKA Technologies, Paris, France).

[2] = system: Hypertension-Induced Renal Disease Rat Model (L-NAME); assay: Urinary protein excretion and plasma creatinine in L-NAME rat model
Procedure: as §1, with “committee. Urine samples were collected for a 4-h period. Urinary protein concentration was normalized to creatinine concentration, and values were expressed as grams protein per millimole creatinine. Blood samples were withdrawn on the last day of the study, and plasma creatinine […] was measured by automated Jaffe's method.” for “committee.”

[3] = system: periostin, vimentin expression in renal cortex; assay: Real time quantitative PCR (and immunoblotting) of markers in renal cortex of L-NAME rat model; details: for periostin mRNA up-regulation in kidney (RT-qPCR): rats, versus baseline
Procedure: Male Sprague-Dawley rats, weighing 250 g, were maintained on a normal-salt diet and had free access to chow and tap water. NO synthesis was inhibited by L-NAME (orally, 15 mg·kg-1·day-1). […] When proteinuria exceeded 1 g/mmol creatinine (after 5 or 6 weeks), a group of animals was killed to allow estimations of renal hemodynamics and morphological parameters just before the beginning of therapy (LN 6w group, n=10). The remaining animals were divided into two subgroups for an additional experimental period of 4 weeks: in the first subgroup, L-NAME was given alone (LN 10w group, n=12); in the second subgroup treatment was accompanied by the administration of an AT1 receptor antagonist (Losartan, orally 30 mg·kg-1·day-1, Merck Sharp and Dohme-Chibret). At the end of Losartan treatment, we separated the animals of the second group in two subgroups: animals with normal creatininemia below 50 μmol/l (LN reg n=14) and animals with a creatininemia above 70 μmol/l (LN no reg n=15). The doses of the drugs were based on pilot experiments and previously published studies. Control animals were sacrificed at 6 and 10 week. Since control animals gave similar results for all measured parameters, pooled data are presented (C group, n=8). Others animals received Losartan during 4 weeks as additional control group (LOS group, n=3). All protocols and treatments were performed with the approval of the French government ethics committee. We extracted RNA from the renal cortex and the abdominal aorta using TRIzol solution (Life Technologies BRL, Gaithersburg, Md.). RNA quality was checked by measuring the ratio of optical densities at 260 and 280 nm and residual genomic DNA was removed by DNase I treatment for 30 min at 37° C. (Fermentas). We used reverse transcription with Revert Aid H minus First Strand DNA Synthesis kit (Fermentas) to convert 1 μg RNA into cDNA, which was then amplified by PCR using a LightCycler 480 (Roche Diagnostic) using SYBR Green (Fast Start DNA Master SYBRGreen I; Roche Applied Science, Roche Diagnostic), specific primers for POST, Col3A1, ESel, Vimentin, VCAM-1 and hypoxanthine-guanine phosphoribosyltransferase (HPRT) as housekeeping gene under the following conditions: 95° C. for 5 min, and 45 cycles at 95° C. for 15 s and 60° C. for 15 s, then 72° C. for 15 s. Specific primers were designed by Universal Probe Library system (UPL, Roche Applied Science). To normalize the Q-PCR results we used Roche LightCycler 2.0 software (Roche Diagnostic). We expressed results as 2-[…], where Cp is the cycle threshold number. We analyzed dissociation curves after each run for each amplicon to access the specificity of quantification when using SYBR Green. 25 μg of protein extracts obtained by RIPA buffer lysis of renal cortex were fractionated by SDS-PAGE NuPAGE 4/12% gels (Invitrogen) under reducing conditions using an XCell SureLockTM Mini-Cell (NuPAGE, Invitrogen, San Diego, Calif., USA) as described by the manufacturer and transferred onto a nitrocellulose membrane (Immobilon-P, Millipore, Billerica, Mass., USA) prior to detection of the POST (Biovendor) or β-actin (Imgenex, Clinisciences, France) protein with a specific rabbit polyclonal primary Ab (dilution 1/1000 and 1/5000 respectively) and a peroxidase-labelled IgG anti-rabbit secondary Ab (dilution 1/4000). The membrane was detected by enhanced chemiluminescence (ECL)-plus kit (Amersham Biosciences, Piscataway, N.J., USA) on autoradiography films (Fuji).

[4] = system: CD3+ lymphocytes in renal cortex; assay: Immunohistochemistry for CD3 in kidney of L-NAME rat model; details: rats, after 6 and 10 weeks LNAME treatment
Procedure: as §1, with “[…] Quantification of CD3-positive cells was” for “Others animals received Losartan during 4 weeks as additional control group (LOS group, n=3). All protocols and treatments were”, “using Olympus analysis software.” for “with the approval of the French government ethics committee.”

[5] = all losartan-treated groups compared to L-NAME 6w and 10w groups

Compound | MAP (mean arterial pressure) ([1]; rats, 6 weeks treatment) [mmHg] | MAP (mean arterial pressure) ([1]; rats, 10 weeks treatment) [mmHg] | renal blood flow ([1]; rats, from 6 weeks LNAME treatment onwards) | proteinuria ([2]; rats, L-NAME, week 6) [g/mmol creatininuria] | creatininemia ([2]; rats, L-NAME, week 10) [µmol/L] | periostin mRNA up-regulation in kidney (RT-qPCR) ([3]; after 6 weeks LNAME) [fold] | periostin mRNA up-regulation in kidney (RT-qPCR) ([3]; after 10 weeks LNAME) [fold] | CD3+ lymphocyte count [4] | renal hemodynamic alterations [1, 5] | creatininemia ([2]; after 4 weeks Losartan (30 mg/kg/day orally)+LNAME, "No Regression" (NOREG) group) [µmol/L] | creatininemia ([2]; after 4 weeks Losartan (30 mg/kg/day orally)+LNAME, "Regression" (REG) group) [µmol/L] | proteinuria [2, 5] | periostin expression in renal cortex ([3]; L-NAME+losartan 4 weeks, NOREG group) | periostin mRNA and protein expression in renal cortex ([3]; L-NAME+losartan 4 weeks, REG group) | vimentin mRNA expression in renal cortex ([3]; after initiation of losartan in L-NAME rats, irrespective of the REG/NOREG group)
COC(=O)[C@@H](N)CCCNC(=N)N[N+](=O)[O-] [LNAME, L-NAME] | 211±7 | 212±5 | striking reduction | 1.3±0.2 | 100 ± 14 | 13 | 18 | strongly increased |  |  |  |  |  |  | 
CCCCc1nc(Cl)c(CO)n1Cc1ccc(-c2ccccc2-c2nn[nH]n2)cc1 [Losartan] |  |  |  |  |  |  |  |  | ameliorated | 76 ± 3 | 50 ± 2 | ameliorated | persistent increase | significantly blunted | sharp decrease
